Measured values as given in US20140073631A1 (priority 2012, published 2014).
Values after ≈ are worked out from the molar mass of the structure shown. “Also recorded” adds a separate entry of the source. Read-outs that look alike come from different tables or passages of the source.

Columns and labels:
[1] = tested on: fresh human peripheral blood mononuclear cells
[2] = tested on: Burkholderia pseudomallei; experiment: microbe, parasite or virus in culture; assay type: cell-based
Yersinia pestis = experiment: microbe, parasite or virus in culture; assay type: cell-based
Mtb H37Rv (SRI 1345) [3] = experiment: microbe, parasite or virus in culture; assay type: cell-based, Mycobacterium tuberculosis; details: for MIC: Mycobacterium tuberculosis, H37RV, 168 h, read-out: MIC H37Rv
[4] = tested on: Mtb H37Rv (SRI 1345) in murine J774 cells; assay type: cell-based, Mycobacterium tuberculosis
Mtb H37Rv (SRI 1345) [5] = experiment: microbe, parasite or virus in culture; assay type: cell-based, Mycobacterium tuberculosis
several bacteria = assay type: cell-based
HIV-1 = experiment: CEM-SS microtiter antiviral XTT cytoprotection assay; assay type: cell-based
Francisella tularensis = experiment: microbe, parasite or virus in culture; assay type: cell-based
[6] = tested on: uninfected J774 macrophages; details: mouse
Burkholderia mallei = experiment: microbe, parasite or virus in culture; assay type: cell-based
[7] = tested on: Mtb H37Rv (SRI 1345), nonreplicating persistence; assay type: cell-based, Mycobacterium tuberculosis
Bacillus anthracis = experiment: microbe, parasite or virus in culture; assay type: cell-based
[8] = tested on: HIV-1 ROJO (low passage clinical strain); experiment: PBMC assay, virus production by reverse transcriptase activity; assay type: cell-based; details: PBMCs
H37Rv Colorado strain [9] = experiment: MBC Determination with H37Rv Colorado strain (Table 9); assay type: cell-based; details: Mycobacterium tuberculosis; Performed with H37Rv
F. tularensis = experiment: microbe, parasite or virus in culture; assay type: cell-based; details: Francisella tularensis, read-out: MIC F. tularensis (Original Test)
P. aeruginosa = experiment: microbe, parasite or virus in culture; assay type: cell-based; details: Pseudomonas aeruginosa, read-out: MIC P. aeruginosa
TB = experiment: DMID TB MIC Results (Table 10); assay type: cell-based; details: Mycobacterium tuberculosis; solvent DMSO
Plasmodium falciparum = experiment: Anti-malaria testing; assay type: cell-based
Vero Cells = experiment: Cytotoxicity Assay, CellTiter-Glo Luminescent Cell Viability Assay
E. coli = experiment: microbe, parasite or virus in culture; assay type: cell-based; details: Escherichia coli, read-out: MIC E. coli
F. tularensis SCHU S4 = tested on: F. tularensis SCHU S4; design: species or system BALB/c mice; details: mouse, in vivo
H37Rv Colorado strain [10] = experiment: TB MIC Testing (Table 9); assay type: cell-based; details: Mycobacterium tuberculosis, read-out: MIC Value, Standard Test Strain H27Rv
B. mallei = experiment: microbe, parasite or virus in culture; assay type: cell-based; details: Burkholderia mallei, read-out: MIC B. mallei
Y. pestis C092 = assay type: in vivo, BALB/c mice
Y. pestis = experiment: microbe, parasite or virus in culture; assay type: cell-based; details: Yersinia pestis, read-out: MIC Y. pestis
B. anthracis = experiment: microbe, parasite or virus in culture; assay type: cell-based; details: Bacillus anthracis, read-out: MIC B. anthracis
B. pseudomallei = experiment: microbe, parasite or virus in culture; assay type: cell-based; details: Burkholderia pseudomallei, read-out: MIC B. pseudomallei
[11] = mouse, in vivo

## N=C(NCCCCCCNC(=N)NC(=N)N1CCN(c2cc3c(cc2F)c(=O)c(C(=O)O)cn3C2CC2)CC1)NC(=N)N1CCN(c2cc3c(cc2F)c(=O)c(C(=O)O)cn3C2CC2)CC1 [BVS-10A]
[1]; 0.01 μg/ml
  TOXICITY VALUES (XTT) % CC: 103.2%
[1]; 0.032 μg/ml
  TOXICITY VALUES (XTT) % CC: 103.6%
[1]; 0.1 μg/ml
  TOXICITY VALUES (XTT) % CC: 97.1%
[1]; 0.32 μg/ml
  TOXICITY VALUES (XTT) % CC: 100.9%
[1]; 1 μg/ml
  TOXICITY VALUES (XTT) % CC: 96.2%
[1]; 3.2 μg/ml
  TOXICITY VALUES (XTT) % CC: 103.5%
[1]; 10 μg/ml
  TOXICITY VALUES (XTT) % CC: 108.3%
[1]; 32 μg/ml
  TOXICITY VALUES (XTT) % CC: 97.3%
[1]; 100 μg/mL
  toxicity in PBMCs: Toxicity was detected
[1]; 100 μg/ml
  TOXICITY VALUES (XTT) % CC: 51.2%
[2]
  MIC Range: 4 to 64 µg/mL
  isolates with MICs<16 μg/ml: 30%
[2]; Burkholderia pseudomallei
  MIC50: 32 µg/mL (≈ 35 µM)
  MIC90: 64 µg/mL (≈ 70.1 µM)
Yersinia pestis
  MIC Range: 0.125 to 0.5 µg/mL
Yersinia pestis; Yersinia pestis
  MIC50: 0.25 µg/mL (≈ 0.274 µM)
Mtb H37Rv (SRI 1345) [3]
  % inhibition at the MIC concentration: 66%
  MIC: 6.25 µg/mL (≈ 6.85 µM)
[4]
  Microphage log reduction (low conc.): 1.14
  Microphage log reduction (mid conc.): 0.80
Mtb H37Rv (SRI 1345) [5]
  Colony Count: TNTC
Several bacteria
  minimum inhibitory concentrations (MIC), range over strains: <0.128 to 12.8 µg/mL
HIV-1; 0.00032 nG/mL
  % RED. IN VIRAL CPC: 3%
HIV-1; 0.001 nG/mL
  % RED. IN VIRAL CPC: 4%
HIV-1; 0.0032 nG/mL
  % RED. IN VIRAL CPC: 1%
HIV-1; 0.01 nG/mL
  % RED. IN VIRAL CPC: 4%
HIV-1; 0.032 nG/mL
  % RED. IN VIRAL CPC: 7%
HIV-1; 0.1 nG/mL
  % RED. IN VIRAL CPC: 2%
HIV-1; 0.32 nG/mL
  % RED. IN VIRAL CPC: 4%
HIV-1; 1 nG/mL
  % RED. IN VIRAL CPC: 9%
HIV-1; 3.2 nG/mL
  % RED. IN VIRAL CPC: 2%
HIV-1; 10 nG/mL
  % RED. IN VIRAL CPC: 11%
HIV-1; 32 nG/mL
  % RED. IN VIRAL CPC: 100%
HIV-1; 100 nG/mL
  % RED. IN VIRAL CPC: 100%
Francisella tularensis
  MIC Range: <0.03125 to 0.25 µg/mL
Francisella tularensis; Francisella tularensis
  MIC50: 0.0625 µg/mL (≈ 0.0685 µM)
[6]
  MTT % viability (high conc.): 73%
  MTT % viability (low conc.): >100%
  MTT % viability (mid conc.): 63%
Burkholderia mallei
  MIC Range: 0.25 to 8 µg/mL
Burkholderia mallei; Burkholderia mallei
  MIC50: 1 µg/mL (≈ 1.1 µM)
  MIC90: ≥ 4 µg/mL
[7]
  LORA: >6.25 µg/mL
Bacillus anthracis
  MIC Range: 0.25 to 2 µg/mL
Bacillus anthracis; Bacillus anthracis
  MIC50: 0.5 µg/mL (≈ 0.548 µM)
[8]
  concentrations at which active: greater than 3.2 μg/mL
CEM-SS cells; 0.00032 nG/mL
  % CELL VIABILITY: 100%
CEM-SS cells; 0.001 nG/mL
  % CELL VIABILITY: 100%
CEM-SS cells; 0.0032 nG/mL
  % CELL VIABILITY: 100%
CEM-SS cells; 0.01 nG/mL
  % CELL VIABILITY: 100%
CEM-SS cells; 0.032 nG/mL
  % CELL VIABILITY: 100%
CEM-SS cells; 0.1 nG/mL
  % CELL VIABILITY: 100%
CEM-SS cells; 0.32 nG/mL
  % CELL VIABILITY: 100%
CEM-SS cells; 1 nG/mL
  % CELL VIABILITY: 100%
CEM-SS cells; 3.2 nG/mL
  % CELL VIABILITY: 100%
CEM-SS cells; 10 nG/mL
  % CELL VIABILITY: 100%
CEM-SS cells; 32 nG/mL
  % CELL VIABILITY: 100%
CEM-SS cells; 100 nG/mL
  % CELL VIABILITY: 100%
CEM-SS cells; human
  TC 25%: >100.00 UG/mL
  TC 50%: >100.00 UG/mL
  TC 95%: >100.00 UG/mL

## C[C@@H]1COc2c(N3CCN(C(=N)NC(=N)N4CCN(c5c(F)cc6c(=O)c(C(=O)O)cn7c6c5OC[C@@H]7C)CC4)CC3)c(F)cc3c(=O)c(C(=O)O)cn1c23 [BVS-76D (XVII)]
H37Rv Colorado strain [9]
  MBC: 0.625 µg/mL (≈ 0.82 µM)
F. tularensis
  MIC: < 0.06 µg/mL
P. aeruginosa
  MIC: 0.25 µg/mL (≈ 0.328 µM)
Yersinia pestis; Yersinia pestis
  MIC90: < 4 µg/mL
TB
  IC50: 1.1 µg/mL (≈ 1.44 µM)
  IC90: 1.19 µg/mL (≈ 1.56 µM)
  MIC: 1.25 µg/mL (≈ 1.64 µM)
Plasmodium falciparum; average of Test 1 and Test 2, read-out: Average IC50
  IC50: 2.72 µM
Plasmodium falciparum; read-out: IC50 Test 1
  IC50: 4.02 µM
Plasmodium falciparum; read-out: IC50 Test 2
  IC50: 1.43 µM
Vero Cells; 0.01 μg/ml
  % Viability: 119%
Vero Cells; 0.02 μg/ml
  % Viability: 105%
Vero Cells; 5 μg/ml
  % Viability: 113%
Vero Cells; 10 μg/ml
  % Viability: 100%
Vero Cells; 20 μg/ml, vs […] DMSO controls
  % Viability: 96%
E. coli
  MIC: < 0.06 µg/mL
F. tularensis SCHU S4
  life span of the mice (average): 10 days
  outcome by day 13: all the mice in test Groups 3, 4 and 5 were dead
  protection of infected mice: partial protection; also recorded: not significantly effective
Francisella tularensis; Francisella tularensis
  MIC90: < 4 µg/mL
Burkholderia mallei; Burkholderia mallei
  MIC90: < 4 µg/mL
H37Rv Colorado strain [10]
  MIC: 0.312 to 0.625 µg/mL (≈ 0.41 to 0.82 µM)
Bacillus anthracis; Bacillus anthracis
  MIC90: ≤ 0.25 µg/mL
B. mallei
  MIC: 1 µg/mL (≈ 1.31 µM)
Y. pestis C092; 21 days
  survival: 100%
Y. pestis C092; mouse, in vivo, 5 mg/kg/day
  protection of infected mice: complete protection
Y. pestis
  MIC: < 0.06 µg/mL
B. anthracis
  MIC: < 0.06 µg/mL
B. pseudomallei
  MIC: 2 to 4 µg/mL (≈ 2.63 to 5.25 µM)
[11]
  symptoms in treated animals incl. unchallenged toxicity group: some inflammation in the urinary, vaginal and rectal areas

## CO[C@H]1/C=C/O[C@@]2(C)Oc3c(C)c(O)c4c(O)c(c(/C=N/N5CCN(C)CC5)c(O)c4c3C2=O)NC(=O)/C(C)=C\C=C\[C@H](C)[C@H](O)[C@@H](C)[C@@H](O)[C@@H](C)[C@H](OC(C)=O)[C@@H]1C [Rifampin, rifampin, reference compound]
H37Rv Colorado strain [9]
  MBC: 0.0063 µg/mL (≈ 0.00766 µM)
Mtb H37Rv (SRI 1345) [3]
  % inhibition at the MIC concentration: 81%
  MIC: 0.049 µg/mL (≈ 0.0595 µM)
TB
  MIC: 0.006 µg/mL (≈ 0.00729 µM)
[4]
  Microphage log reduction (high conc.): 2.00
  Microphage log reduction (low conc.): 0.76
  Microphage log reduction (mid conc.): 1.11
Mtb H37Rv (SRI 1345) [5]
  Colony Count: 23 CFU
Mtb H37Rv (SRI 1345) [5]; Mycobacterium tuberculosis, H37RV
  MBC: 3.12 µg/mL (≈ 3.8 µM)
[6]
  MTT % viability (high conc.): 86%
  MTT % viability (low conc.): 97%
  MTT % viability (mid conc.): 96%
H37Rv Colorado strain [10]
  MIC: 0.0031 µg/mL (≈ 0.00377 µM)
[7]
  LORA: 1.56 µg/mL
